Source: patent US11440932B2, “Surfactant compounds-clips for extraction and stabilization in solution of membrane proteins” (CENTRE NATIONAL DE LA RECHERCHE SCIENTIFIQUE, priority 2017, dated 2022)
Non-standard residues stand in square brackets, D forms with d. Residues, ends and D or L forms follow the SMILES beside them. ξ: configuration not given here. *: point of attachment. Palmitoyl = CCCCCCCCCCCCCCCC(=O)*; Myristoyl = CCCCCCCCCCCCCC(=O)*; Lauroyl = CCCCCCCCCCCC(=O)*; Decanoyl = CCCCCCCCCC(=O)*; ξE = NC(CCC(=O)O)C(=O)O; ξD = NC(CC(=O)O)C(=O)O

Columns and labels:
BmrA = molecular target: T1, BmrA (Bacillus subtilis, UniProt O06967); assay: Extraction of BmrA from membranes (SDS-PAGE of supernatant); parameters: species or system bacterial; overexpressed in E. coli C41DE3; settings: detergent 10 g/l unless indicated otherwise; 2 h at 4° C.
T1 construct: His tag; made in house; host or cells: E. coli C41(DE3)
Description: (§1) FIG. 6 depicts the extraction of the membrane proteins BmrA (panels A and C) and AcrB (panels B and D) using commercial detergents and the molecules of the invention (panels A and B, from left to right): SDS, DDM, FC12, TX100, compounds of the invention 1.4, 1.5, 2.3a, 2.3b, 2.3c, 2.3d, 2.3e, 2.3f, 2.3g, 2.3h, 2.3i, 3.7a, 3.7b; panel C: compounds of the invention 3.7c 0.8%, 3.7d 0.16%, 3.7e 0.8%, 3.7f 0.3%, 3.7g 0.4%, 3.7h 0.2%, 3.7i 0.07%, 3.7j 0.09%, 3.7k, 3.7l, 0.25%, 3.9a, 4.5a, 4.5b, 4.5c, 4.5d 0.34%, 4.6a, 4.6b, 4.6c, 4.6d, 5.3a, 5.3b, 5.3c 0.3%, 5.3d 0.3%; panel D: 3.7c, 3.7d, 3.7e, 3.7f, 3.7h, 3.7i 0.1%, 3.7j, 3.7k, 3.7l, 3.9a, 4.5a, 4.5b, 4.5c, 4.5d, 4.6a, 4.6b, 4.6c, 4.6d. The detergents are added at 10 g/l (1%), unless indicated otherwise. The equivalent of 20 μg of proteins of the extracted fraction after centrifugation at 100 000×g for 30 min is deposited on 10% SDS-PAGE, stained with Coomassie blue after migration. BmrA migrates in its monomeric form to the level of the 55 kDa band; AcrB migrates in its monomeric form to the level of the 100 kDa band. SDS=sodium dodecyl sulfate; DDM=β-D-dodecyl maltoside; FC12=foscholine-12; TX100=triton X-100.
(§2) The extraction capacity of the detergents of the series is tested on membranes in which BmrA or AcrB are strongly expressed. The extraction with the clips (molecules of the invention) is compared to that obtained with commercial detergents, used as reference.
(§3) Procedure. BmrA represents 25% of the proteins present in the overexpression system used (E. coli, C41DE3). These membranes are prepared as described previously (Matar-Merheb, R. et al. ([11])). The membranes containing AcrB (approximately 20% of the membrane proteins, same expression system as BmrA) were prepared as described previously (Seeger, M. A. et al. ([21])). The detergents are used at 10 g/l unless indicated otherwise, and the proteins diluted at 2 g/l in a 20 mM Tris-HCl buffer, pH 8.0, 100 mM NaCl, 15% glycerol, with protease inhibitors (Roche) added thereto at an amount of one tablet/100 ml. The mixture (T) is incubated for 2 h at 4° C. then centrifuged for 1 h at 4° C. at 100 000×g in order to separate the extracted fraction (supernatant, S) from that which is not extracted (pellet). The supernatants are deposited on 10% SDS-PAGE and stained with Coomassie blue after migration. The foscholine 12, DDM and LMNG originate from Anatrace, the SDS and Triton X100 originate from Sigma-Aldrich.

AcrB = molecular target: T2, AcrB (Escherichia coli, UniProt P31224); assay: Extraction of AcrB from membranes (SDS-PAGE of supernatant); parameters: species or system bacterial; same expression system (E. coli C41DE3); settings: for selective extraction AcrB versus BmrA: comparison of extraction of AcrB and BmrA; for extraction of AcrB: detergent 10 g/l unless indicated otherwise, 2 h at 4° C.
T2 construct: made in house; host or cells: E. coli C41(DE3)
Description: as §1, §2, §3

[1] = Critical micelle concentration (CMC) by DPH fluorescence; type: physicochemical; settings: 50 mM tris-HCl, pH 8.0
Description: FIG. 4 represents the fluorescence (%) of DPH (1,6-diphenyl-1,3,5-hexatriene) in the presence of increasing concentrations (0.0001 mM, 0.001 mM, 0.01 mM, 0.1 mM, 1 mM and 10 mM) of clips (compounds of the invention), exemplified with the compounds #3.7e (C13, points represented by squares) and 3.7f (C18, points represented by circles). The experiment is carried out in triplicates. In accordance with Chattopadhyay, A. & London, E ([22]), the CMC corresponds to the concentration at which the breakage in the slope is observed, here at 20 μM for 3.7f and 2 mM for 3.7e (black symbols).
Procedure. The molecules of the invention were prepared in a range of concentrations extending from 0.1 μM to 10 mM in 50 mM tris-HCl, pH 8.0 and neutralized at this pH. To 80 μl of each solution (triplicate), the same volume of 10 μM of 1,6-diphenyl-1,3,5-hexatriene (DPH, Sigma, D208000) is added, prepared at 100 μM in tetrahydrofuran then diluted 10-fold in H2O. The increase in the fluorescence of the DPH occurs when the latter find micelles of clips into which it can insert itself (Chattopadhyay, A. & London, E. Fluorimetric determination of critical micelle concentration avoiding interference from detergent charge. Anal Biochem 139, 408-412 (1984) ([22])). The fluorescence is read with a Xenius SAFAS fluorimeter by exciting at 358 nm and recording the fluorescence emission at 430 nm, with slits of 9 to 10 nm for the excitation and the emission and a gain of 100 to 150, depending on the cases.
Results. The CMC of the detergents is the concentration starting from which they associate with one another to form micelles, in which, in aqueous solution, the hydrophobic portions are grouped together at the center and the hydrophilic regions are exposed to the solvent. […] A typical result obtained with a compound 3.7 provided with a C13 (3.7e) or C18 ([…]) aliphatic chain is illustrated in FIG. 4.

T1 sequence (O06967 whole entry): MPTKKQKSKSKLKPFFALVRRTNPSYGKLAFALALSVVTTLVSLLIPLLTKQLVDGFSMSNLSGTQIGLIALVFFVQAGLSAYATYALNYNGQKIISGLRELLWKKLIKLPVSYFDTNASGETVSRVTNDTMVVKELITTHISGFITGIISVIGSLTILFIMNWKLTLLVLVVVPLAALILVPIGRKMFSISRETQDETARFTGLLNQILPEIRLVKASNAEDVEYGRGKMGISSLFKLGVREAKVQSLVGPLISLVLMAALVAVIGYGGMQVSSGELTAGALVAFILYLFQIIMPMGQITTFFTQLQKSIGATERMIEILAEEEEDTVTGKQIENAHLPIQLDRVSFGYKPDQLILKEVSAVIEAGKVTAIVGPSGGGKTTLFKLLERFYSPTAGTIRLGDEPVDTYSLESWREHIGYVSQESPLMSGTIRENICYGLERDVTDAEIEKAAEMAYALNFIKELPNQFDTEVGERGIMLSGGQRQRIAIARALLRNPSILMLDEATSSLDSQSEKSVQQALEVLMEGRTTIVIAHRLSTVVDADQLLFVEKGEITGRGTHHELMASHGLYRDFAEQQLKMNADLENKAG
T2 sequence (P31224 whole entry): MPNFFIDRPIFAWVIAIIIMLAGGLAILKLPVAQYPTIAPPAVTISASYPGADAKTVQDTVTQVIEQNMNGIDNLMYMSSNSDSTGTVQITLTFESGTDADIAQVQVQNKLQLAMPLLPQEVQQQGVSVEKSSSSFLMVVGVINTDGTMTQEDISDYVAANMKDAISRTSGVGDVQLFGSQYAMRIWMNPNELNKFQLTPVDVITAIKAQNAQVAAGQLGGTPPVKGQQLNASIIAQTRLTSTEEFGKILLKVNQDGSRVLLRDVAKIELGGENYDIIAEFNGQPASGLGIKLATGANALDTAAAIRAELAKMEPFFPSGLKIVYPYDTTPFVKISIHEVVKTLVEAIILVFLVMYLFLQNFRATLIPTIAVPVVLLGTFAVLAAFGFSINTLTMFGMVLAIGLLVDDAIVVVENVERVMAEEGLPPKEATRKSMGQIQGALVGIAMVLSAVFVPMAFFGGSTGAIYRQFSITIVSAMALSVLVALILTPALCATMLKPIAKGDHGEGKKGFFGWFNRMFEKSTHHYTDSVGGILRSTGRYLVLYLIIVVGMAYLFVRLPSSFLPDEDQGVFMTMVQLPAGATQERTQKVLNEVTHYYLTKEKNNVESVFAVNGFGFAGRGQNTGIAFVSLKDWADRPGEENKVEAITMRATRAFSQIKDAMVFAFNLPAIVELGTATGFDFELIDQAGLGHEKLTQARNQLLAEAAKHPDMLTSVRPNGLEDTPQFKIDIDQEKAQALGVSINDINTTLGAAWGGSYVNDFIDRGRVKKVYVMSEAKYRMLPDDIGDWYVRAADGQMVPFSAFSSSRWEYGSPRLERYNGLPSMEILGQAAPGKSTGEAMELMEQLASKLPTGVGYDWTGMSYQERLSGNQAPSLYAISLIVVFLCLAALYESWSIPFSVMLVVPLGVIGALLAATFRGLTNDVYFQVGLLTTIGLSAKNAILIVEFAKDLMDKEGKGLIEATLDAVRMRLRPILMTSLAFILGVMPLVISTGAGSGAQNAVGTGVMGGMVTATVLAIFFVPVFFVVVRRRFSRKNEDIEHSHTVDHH

Compound	extraction of BmrA (BmrA)	selective extraction AcrB versus BmrA (AcrB)	extraction of AcrB (AcrB)	CMC [1] [mM]
CCCNC(=O)[C@H](CO)NCC(=O)O [Compound 1.4]	extracting			
CCCNC(=O)[C@H](CO)N(CC(=O)O)CC(=O)O [Compound 1.5]	partially extracting	more effectively extract AcrB	extracting	2.5
CCCCCCCCCCCCCC(=O)N[C@@H](CO)C(=O)N[C@H](CCC(=O)O)C(=O)O [Compound 2.3a] (HELM PEPTIDE1{[CCCCCCCCCCCCCC(=O)[*:2]].S.[dE]}$$$$V2.0)	extracting		extracting	2
CCCCCCCC(=O)N[C@@H](CO)C(=O)N[C@H](CCC(=O)O)C(=O)O [Compound 2.3b] (HELM PEPTIDE1{[CCCCCCCC(=O)[*:2]].S.[dE]}$$$$V2.0)	non-extracting		extracting	5
CCCCCCCCC(=O)N[C@@H](CO)C(=O)N[C@H](CCC(=O)O)C(=O)O [Compound 2.3c] (HELM PEPTIDE1{[CCCCCCCCC(=O)[*:2]].S.[dE]}$$$$V2.0)	non-extracting		extracting	3.5
CCCCCCCCCC(=O)N[C@@H](CO)C(=O)N[C@H](CCC(=O)O)C(=O)O [Compound 2.3d] (HELM PEPTIDE1{[CCCCCCCCCC(=O)[*:2]].S.[dE]}$$$$V2.0)	extracting		extracting	2
CCCCCCCCCCCC(=O)N[C@@H](CO)C(=O)N[C@H](CCC(=O)O)C(=O)O [Compound 2.3e] (HELM PEPTIDE1{[CCCCCCCCCCCC(=O)[*:2]].S.[dE]}$$$$V2.0)			extracting	1
CCCCCCCCCCCCC(=O)N[C@@H](CO)C(=O)N[C@H](CCC(=O)O)C(=O)O [Compound 2.3f]	extracting		extracting	0.8
CCCCCCCCCCCCCC(=O)N[C@@H](CO)C(=O)N[C@H](CCC(=O)O)C(=O)O [Compound 2.3g] (HELM PEPTIDE1{[CCCCCCCCCCCCCC(=O)[*:2]].S.[dE]}$$$$V2.0)	extracting		extracting	
CCCCCCCCCCCCCCCC(=O)N[C@@H](CO)C(=O)N[C@H](CCC(=O)O)C(=O)O [Compound 2.3h] (HELM PEPTIDE1{[CCCCCCCCCCCCCCCC(=O)[*:2]].S.[dE]}$$$$V2.0)	extracting		extracting	0.5
[2H]C([2H])([2H])C([2H])([2H])C([2H])([2H])C([2H])([2H])C([2H])([2H])C([2H])([2H])C([2H])([2H])C([2H])([2H])C([2H])([2H])C([2H])([2H])C([2H])([2H])C(=O)N[C@@H](CO)C(=O)N[C@H](CCC(=O)O)C(=O)O [Compound 2.3i]	extracting		extracting	
CCCCCCCCCC(=O)N[C@@H](COCc1cn(CCO[C@@H]2OC(CO)[C@@H](O)C(O)C2O)nn1)C(=O)N[C@H](CCC(=O)O)C(=O)O (stereo partly drawn) [Compound 3.7a]	non-extracting		do not extract	2
CCCCCC(CCCCC)C(=O)N[C@@H](COCc1cn(CCO[C@@H]2OC(CO)[C@@H](O)C(O)C2O)nn1)C(=O)N[C@H](CCC(=O)O)C(=O)O (stereo partly drawn) [Compound 3.7i]	non-extracting		do not extract	1
O=C(O)CC[C@@H](NC(=O)[C@H](COCc1cn(CCO[C@@H]2OC(CO)[C@@H](O)C(O)C2O)nn1)NC(=O)CCCCC1CCCCC1)C(=O)O (stereo partly drawn) [Compound 3.7k]	non-extracting		do not extract	1
CCCCCCCCCC(=O)NC(CC(=O)O)C(=O)NC(CCC(=O)O)C(=O)O (stereo not drawn) [Compound 4.5a] (Decanoyl-Asp-Glu-OH; configuration not given here)	non-extracting		partially extract	3
CCCCCCCCCCCC(=O)NC(CC(=O)O)C(=O)NC(CCC(=O)O)C(=O)O (stereo not drawn) [Compound 4.5b] (Lauroyl-Asp-Glu-OH; configuration not given here)	partially extracting		extracting	2
CCCCCCCCCCCCCC(=O)NC(CC(=O)O)C(=O)NC(CCC(=O)O)C(=O)O (stereo not drawn) [Compound 4.5c] (Myristoyl-Asp-Glu-OH; configuration not given here)	partially extracting		extracting	1.5
CCCCCCCCCCCCCCCC(=O)NC(CC(=O)O)C(=O)NC(CCC(=O)O)C(=O)O (stereo not drawn) [Compound 4.5d] (Palmitoyl-Asp-Glu-OH; configuration not given here)	extracting		extracting	1
CCCCCCCCCC(=O)NC(CC(=O)NC(CCC(=O)O)C(=O)O)C(=O)NC(CCC(=O)O)C(=O)O (stereo not drawn) [Compound 4.6a] (Decanoyl-Asp(Glu)-Glu-OH; configuration not given here)	non-extracting		do not extract	1
CCCCCCCCCCCC(=O)NC(CC(=O)NC(CCC(=O)O)C(=O)O)C(=O)NC(CCC(=O)O)C(=O)O (stereo not drawn) [Compound 4.6b] (Lauroyl-Asp(Glu)-Glu-OH; configuration not given here)		not extract, or only very slightly extract, AcrB, unlike BmrA		1
CCCCCCCCCCCCCC(=O)NC(CC(=O)N[C@@H](CCC(=O)O)C(=O)O)C(=O)NC(CCC(=O)O)C(=O)O (stereo partly drawn) [Compound 4.6c] (Myristoyl-[ξD](Glu)-[ξE]-OH)			extracting	1
CCCCCCCCCCCCOP(=O)([O-])OCC[N+](C)(C)C [FC12, foscholine-12, reference compound]	effectively extracted		effectively extracted	
CCCCCCCCCCCCOS(=O)(=O)[O-].[Na+] [SDS, sodium dodecyl sulfate, reference compound]	effectively extracted		effectively extracted	
triton X-100 [TX100, reference compound]	solubilize		solubilize	
